Experimental data reported in patent US6620828B2, “Thiazole compounds and pharmaceutical compositions for inhibiting protein kinases and methods for their use” (Agouron Pharmaceuticals, Inc., priority 1999, dated 2003).
pIC50, pKi: −log10 of the molar value. “And” between values parts separate entries of the source, which are not always exact repeats. Equal values may be shown once. Read-outs that look alike come from different tables or passages of the source.

Key:
[1] = biological target: T1, unphosphorylated VEGF-R2Δ50 (FLVK) (Homo sapiens, UniProt P35968, DEL940-989/E990V); assay: VEGF-R2 coupled spectrophotometric assay, unphosphorylated enzyme (FLVK); assay type: biochemical
T1 construct: VEGF-R2Δ50 contains residues 806-939 and 990-1171; made in house; host or cells: baculovirus/insect cells
T1 sequence (P35968 with tags, fused parts or gaps DEL940-989/E990V limits assumed): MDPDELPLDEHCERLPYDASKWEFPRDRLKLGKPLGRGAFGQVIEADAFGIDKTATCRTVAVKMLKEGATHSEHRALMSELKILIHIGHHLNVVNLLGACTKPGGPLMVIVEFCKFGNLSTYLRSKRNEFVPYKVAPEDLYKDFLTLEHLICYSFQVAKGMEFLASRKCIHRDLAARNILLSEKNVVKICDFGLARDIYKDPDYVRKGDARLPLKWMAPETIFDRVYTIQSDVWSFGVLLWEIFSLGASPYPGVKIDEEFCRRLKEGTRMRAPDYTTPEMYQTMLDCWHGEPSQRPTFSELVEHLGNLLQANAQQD
Summary of the method: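 Unphosphorylated VEGF-R2Δ50 (5 to 40 nM) with 20 mM poly(E4Y1), 3 mM ATP, 60 mM MgCl2, 2 mM MnCl2 in 200 mM Hepes pH 7.5. ADP production coupled via PK/LDH to NADH oxidation, read at 340 nm. Ki from activity at varying compound concentrations.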

LCK tyrosine kinase [2] = biological target: T2, LCK tyrosine kinase (Homo sapiens, UniProt P06239, C224D/P223M); assay: LCK spectrophotometric assay; assay type: biochemical; settings: Table 3, read-out: LCK (% inh @ 1 uM)
T2 construct: starting from amino acid residue 223 to the end of the protein at residue 509; made in house; host or cells: insect cells
T2 sequence (P06239 223-509 P223M/C224D): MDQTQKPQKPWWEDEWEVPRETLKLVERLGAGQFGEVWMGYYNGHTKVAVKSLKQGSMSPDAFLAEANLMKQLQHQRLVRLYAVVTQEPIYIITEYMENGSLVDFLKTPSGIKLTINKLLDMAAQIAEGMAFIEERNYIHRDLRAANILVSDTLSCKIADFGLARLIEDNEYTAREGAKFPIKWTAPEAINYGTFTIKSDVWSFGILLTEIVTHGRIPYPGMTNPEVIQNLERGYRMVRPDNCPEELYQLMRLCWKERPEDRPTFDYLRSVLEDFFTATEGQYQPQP

[3] = test system: human umbilical vein endothelial cells (HUVEC); assay: HUVEC proliferation assay; assay type: cell-based; settings: Homo sapiens, HUVEC
Summary of the method: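 Readout was MTT dye reduction (A595) after 72 h of stimulation with VEGF at 6 ng/ml final. Compound, in 0.1% DMSO final, was added 1 h before VEGF to HUVEC starved 24 h in 1% FBS. % inhibition was scaled between VEGF-alone and unstimulated wells; IC50 was fitted from triplicate dose curves.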

FGF-R1 = biological target: T3, FGF-R1 (Homo sapiens, UniProt P11362, C488A/C584S/L457V); assay: FGF-R spectrophotometric assay; assay type: biochemical; settings: for inhibition at 1 µM: Table 3, % inh @ 1 uM, read-out: FGF-P Ki (nM) (% inh @ 1 uM); for FGF-R % inhibition @ 5: at 5 (head μM)
T3 construct: starting from the endogenous methionine residue 456 to glutamate 766; made in house; host or cells: baculovirus vector expression system
T3 sequence (P11362 456-766 L457V/C488A/C584S): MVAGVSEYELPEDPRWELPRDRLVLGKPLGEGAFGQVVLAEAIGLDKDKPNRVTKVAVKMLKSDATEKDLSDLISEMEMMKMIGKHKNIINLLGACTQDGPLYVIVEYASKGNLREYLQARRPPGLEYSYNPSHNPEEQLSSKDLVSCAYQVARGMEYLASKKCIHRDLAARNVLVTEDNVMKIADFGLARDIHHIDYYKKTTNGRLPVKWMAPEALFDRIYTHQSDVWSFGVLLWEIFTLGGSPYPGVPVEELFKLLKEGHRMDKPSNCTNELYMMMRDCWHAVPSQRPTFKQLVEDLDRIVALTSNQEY
Summary of the method: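 Kinase domain (Met456–Glu766, baculovirus-expressed) used at 50 nM in a spectrophotometric assay run as for VEGF-R2. Substrates were 2 mM ATP and 15 mM poly(E4Y1).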

LCK tyrosine kinase [4] = biological target: T2, LCK tyrosine kinase; assay: LCK spectrophotometric assay; assay type: biochemical; settings: for pKi: Table 3, first value of cells with two values
Method: LCK Construct for Assay: The LCK tyrosine kinase was expressed in insect cells as an N-terminal deletion starting from amino acid residue 223 to the end of the protein at residue 509, with the following two amino acid substitutions at the N-terminus: […] and C224D.
The spectrophotometric assay was carried out as described above for VEGF-R2, except for the following changes in concentration: LCK=60 nM, MgCl2=0 mM, poly(E4Y1)=20 mM.

[5] = test system: lung cancer cells (line MV522); assay: Cancer cell proliferation (MV522) assay; assay type: cell-based
CDK2/Cyclin A complex = CDK2/Cyclin A complex (Homo sapiens, UniProt P24941); assay: CDK2/Cyclin A assay; assay type: biochemical; settings: Table 2
Summary of the method: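 Radiometric assay: 150 nM CDK2/cyclin A (insect-cell CDK2, truncated cyclin A) phosphorylates His-tagged Rb fragment (residues 386-928) with 25 μM ATP plus [32P]ATP, pH 7.4 HEPES, 2% DMSO, 30 °C for 20 min. Filter-captured product counted by phosphorimager; apparent Ki from competitive or tight-binding inhibition fits.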

CDK4/Cyclin D3 complex = biological target: T4, CDK4/Cyclin D3 complex (Homo sapiens, UniProt P11802); assay: CDK4/Cyclin D assay; assay type: biochemical; settings: Table 2
T4 construct: made in house; host or cells: insect cells co-infected with baculovirus vectors
T4 sequence (P11802 whole entry): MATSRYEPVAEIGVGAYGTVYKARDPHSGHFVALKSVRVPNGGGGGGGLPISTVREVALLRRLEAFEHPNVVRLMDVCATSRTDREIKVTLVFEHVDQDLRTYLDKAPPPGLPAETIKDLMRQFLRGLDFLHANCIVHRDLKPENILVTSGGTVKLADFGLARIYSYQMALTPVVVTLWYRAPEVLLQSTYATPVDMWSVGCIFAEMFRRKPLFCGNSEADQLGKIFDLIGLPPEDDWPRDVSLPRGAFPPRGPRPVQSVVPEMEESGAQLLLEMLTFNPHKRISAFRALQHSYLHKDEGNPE
T4 sequence (P30281 whole entry partner): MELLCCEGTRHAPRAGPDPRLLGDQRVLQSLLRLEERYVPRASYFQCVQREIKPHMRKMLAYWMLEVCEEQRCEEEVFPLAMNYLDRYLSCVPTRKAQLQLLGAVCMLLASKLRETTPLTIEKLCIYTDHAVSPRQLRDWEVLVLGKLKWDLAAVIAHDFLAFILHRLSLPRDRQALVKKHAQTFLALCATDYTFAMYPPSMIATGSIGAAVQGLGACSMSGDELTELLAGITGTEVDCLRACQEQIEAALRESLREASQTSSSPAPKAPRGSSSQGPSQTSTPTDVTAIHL
Summary of the method: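 Insect-cell-expressed CDK4/cyclin D3 (50 nM) phosphorylating His-tagged Rb fragment (residues 386-928) with 25 μM [^32P]ATP in HEPES pH 7.4, MgCl2, 2% DMSO; 20 min at 30 °C, EDTA stop. Filter-captured 32P by phosphorimager; apparent Ki from competitive or tight-binding inhibition fits.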

[6] = biological target: T5, phosphorylated VEGF-R2Δ50 (FLVK-P) (Homo sapiens, UniProt P35968, DEL940-989/E990V); assay: VEGF-R2 coupled spectrophotometric (FLVK-P) assay; assay type: biochemical; settings: spectrophotometric assay
T5 construct: VEGF-R2Δ50 contains residues 806-939 and 990-1171; made in house; host or cells: baculovirus/insect cells
T5 sequence (P35968 with tags, fused parts or gaps DEL940-989/E990V limits assumed): as the sequence (P35968 with tags, fused parts or gaps DEL940-989/E990V limits assumed) above
Summary of the method: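 Baculovirus-expressed human VEGF-R2Δ50 (residues 806-939/990-1171, E990V) was autophosphorylated with 3 mM ATP, 40 mM MgCl2 for 2 h at 4° C. ADP formation was coupled via PK/LDH to NADH oxidation, read at 340 nm, with 5.1 mM poly(E4Y1), 1 mM ATP, 25 mM MgCl2, Hepes pH 7.5. Ki came from activity across compound concentrations.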

FAKcd409 = biological target: T6, FAKcd409 (Homo sapiens, UniProt Q05397, P410T); assay: FAK HTS assay; assay type: biochemical; settings: 10 uM compound, HTS Delphia assay
T6 construct: comprises residues methionine 409 to glutamate 689; made in house; host or cells: baculovirus vector expression system
T6 sequence (Q05397 409-689 P410T): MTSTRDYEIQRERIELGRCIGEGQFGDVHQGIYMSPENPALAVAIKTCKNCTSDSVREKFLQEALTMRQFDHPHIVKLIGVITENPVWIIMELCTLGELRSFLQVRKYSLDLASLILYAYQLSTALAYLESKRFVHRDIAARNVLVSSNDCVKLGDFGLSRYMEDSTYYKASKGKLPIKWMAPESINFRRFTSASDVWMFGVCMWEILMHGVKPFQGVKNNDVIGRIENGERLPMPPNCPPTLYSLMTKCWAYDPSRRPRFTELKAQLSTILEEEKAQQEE

CHK1 = biological target: T7, CHK1 (Homo sapiens, UniProt O14757); assay: CHK1 high-throughput screening; assay type: biochemical; settings: for inhibition at 20 µM: read-out: % inhibition @ 20 μM, Table 4, repeated entries per example
T7 sequence (O14757 1-476): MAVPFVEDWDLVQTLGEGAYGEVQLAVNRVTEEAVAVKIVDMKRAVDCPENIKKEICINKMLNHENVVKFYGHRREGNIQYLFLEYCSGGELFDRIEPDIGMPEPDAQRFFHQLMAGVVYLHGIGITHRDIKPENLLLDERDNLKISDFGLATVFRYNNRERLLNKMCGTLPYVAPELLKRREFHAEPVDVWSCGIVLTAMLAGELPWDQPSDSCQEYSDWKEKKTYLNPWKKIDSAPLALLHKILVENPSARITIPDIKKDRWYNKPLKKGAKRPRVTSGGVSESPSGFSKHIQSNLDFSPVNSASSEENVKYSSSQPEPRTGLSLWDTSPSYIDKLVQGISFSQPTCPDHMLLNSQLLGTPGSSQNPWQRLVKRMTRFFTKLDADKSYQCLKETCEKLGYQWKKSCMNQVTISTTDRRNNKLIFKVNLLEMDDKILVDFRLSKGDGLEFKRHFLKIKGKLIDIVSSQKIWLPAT

[7] = biological target: T8, phosphorylated VEGF-R2Δ50 (Homo sapiens, UniProt P35968, DEL940-989/E990V); assay: VEGF-R2 ELISA assay; assay type: biochemical; settings: Table 2; * determined with ELISA assay; read-out: FLVK-P Ki
T8 construct: VEGF-R2Δ50 contains residues 806-939 and 990-1171; made in house; host or cells: baculovirus/insect cells
T8 sequence (P35968 with tags, fused parts or gaps DEL940-989/E990V limits assumed): as the sequence (P35968 with tags, fused parts or gaps DEL940-989/E990V limits assumed) above
Summary of the method: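 Pre-autophosphorylated human VEGF-R2Δ50 (residues 806-939/990-1171, E990V; baculovirus) at 0.8 nM was run with 2 μM biotin-gastrin(1-17), 20 μM ATP, 26 mM MgCl2, 2 mM MnCl2, pH 7.5 Hepes. Phosphopeptide was captured on streptavidin and detected by anti-pTyr-HRP/ABTS at 405 nm; Ki came from activity at varying compound concentrations.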

[8] = Table 3, some entries 'Slow binder'

Structure (SMILES) | inhibition at 1 µM (LCK tyrosine kinase [2]) [%] | pIC50 ([3]; Table 3) | inhibition at 1 µM (FGF-R1) [%] | pKi (LCK tyrosine kinase [4]) | pKi (CDK2/Cyclin A complex) | pKi (CDK4/Cyclin D3 complex) | FGF-R % inhibition @ 5 (FGF-R1; Table 2) [% @] | melting point | pKi ([6]; Table 2) | % inhibition of FAK (FAKcd409; 10 µM) | % inhibition of FAK (FAKcd409) [%] | other results
COc1cc(Nc2nc(N)c(-c3nc(-c4cc(NC(=O)c5cccc(Cl)c5)ccc4Cl)no3)s2)cc(OC)c1OC [D(64)] | 94 | 7.00 to 8.00 | 84 | 8.49 |  |  |  |  |  |  |  | pKi [1, 8]: 8.85; pIC50 ([5]; MV522, Table 3): 5.70
COc1cc(Nc2nc(N)c(-c3nc(-c4ccc(O)cc4)cs3)s2)cc(OC)c1OC [A(10), 4-[4′-Amino-2′-(3,4,5-trimethoxy-phenylamino)-[2,5′]bithiazolyl-4-yl]-phenol] |  |  |  |  | 4.87 | 5.04 | 45 | 129 to 133 °C (dec.) | 7.55 | −2% and −5% and −4% |  | 
COc1cc(Nc2nc(N)c(-c3nc(-c4cc(NC(=O)c5cccc(Cl)c5)ccc4C)no3)s2)cc(OC)c1OC [D(75), 3-[3-[(3-chlorobenzoyl)amino]-6-methyl-phenyl]-5-[2-[(3,4,5-trimethoxyphenyl)amino]-4-amino-5-thiazolyl]-1,2,4-oxadiazole] | 97 | 8.11 | 64 | 8.96 |  |  |  |  |  |  |  | 
COc1cc(Nc2nc(N)c(-c3nc(-c4ccccc4O)cs3)s2)cc(OC)c1OC [A(23), 2-[4′-Amino-2′-(3,4,5-trimethoxy-phenylamino)-[2,5′]bithiazolyl-4-yl]-phenol] |  |  |  |  |  |  | 47 | 186 to 190 °C (dec.) | 7.41 | −5% and −6% and 4% |  | LCK % inhibition @ 5 (LCK tyrosine kinase [4]; Table 2, at 5 (head μM)): 34% @
COc1cccc(C(=O)Nc2ccc(Cl)c(-c3noc(-c4sc(Nc5cc(OC)c(OC)c(OC)c5)nc4N)n3)c2)c1 [D(65), N-(3-{5-[4-Amino-2-(3,4,5-trimethoxy-phenylamino)-thiazol-5-yl]-[1,2,4]oxadiazyl}-4-chloro-phenyl)-3-methoxy-benzamide] | 91 | 8.37 | 37 | 8.03 |  |  |  |  |  |  |  | pKi [1, 8]: 9.00; pIC50 ([5]; MV522, Table 3): 5.68
COc1cc(Nc2nc(N)c(-c3nc(-c4cc(O)ccc4Br)cs3)s2)cc(OC)c1OC [A(26), 3-[4′-Amino-2′-(3,4,5-trimethoxy-phenylamino)-[2,5′]bithiazolyl-4-yl]-4-bromophenol] |  |  |  |  |  |  | 52 | 214 to 216 °C | 7.85 |  | 72 | inhibition at 20 µM (CHK1): 42.5%; pIC50 ([3]; Table 2): < 6.00; pIC50 ([5]; MV522, Table 2): 5.12
COc1cc(Nc2nc(N)c(-c3nc(-c4cc(O)cc(O)c4)cs3)s2)cc(OC)c1OC [A(18), 5-[4′-Amino-2′-(3,4,5-trimethoxy-phenylamino)-[2,5′]bithiazolyl-4-yl]-benzene-1,3-diol] |  |  |  |  |  |  | 38 | 198 to 202 °C |  | 32% and 29% |  | inhibition at 20 µM (CHK1): 60.8%; inhibition at 10 µM (FAKcd409): 25%
CC(=O)Nc1nc(N)c(-c2nc(-c3cccc(NC(=O)c4ccccc4)c3)cs2)s1 [F(9), N-[3-(2′-Acetylamino-4′-amino-[2,5′]bithiazolyl-4-yl)-phenyl]benzamide] |  |  |  |  |  |  |  |  |  |  |  | pKi ([1]; Table 1): 8.02; pIC50 ([3]; Table 1): 7.68; inhibition at 1 µM (LCK tyrosine kinase [4]; Table 1, 1 μM): 12%; pIC50 ([5]; MV522, Table 1): < 5.00; pKi ([6]; Table 1): 8.11
COc1cc(Nc2nc(N)c(-c3nc(-c4ccc(O)c(O)c4)cs3)s2)cc(OC)c1OC [A(12), 4-[4′-Amino-2′-(3,4,5-trimethoxy-phenylamino)-[2,5′]bithiazolyl-4-yl]-benzene-1,2-diol] |  |  |  |  | 5.17 | 5.57 |  | 132 to 137 °C (dec.) | 7.47 |  | −16 | pKi (FGF-R1; Table 2): 3.72
COc1ccccc1-c1csc(-c2sc(Nc3ccc(S(N)(=O)=O)cc3)nc2N)n1 [A(3), 4-[4′-Amino-4-(2-methoxy-phenyl)-[2,5′]bithiazolyl-2′-ylamino]-benzenesulfonamide] |  |  |  |  | 5.60 | 5.08 |  | 231 to 235 °C (dec.) |  |  | −9 | % inhibition @ 20 μM (CHK1; Table 4, repeated entries per example, 20 µM): 2.8% and −1.9%; pKi [7]: 4.19
